The results in this text go back to patent US20250136570A1 (Tango Therapeutics, Inc., priority 2021, published 2025).

One assay concerns the target Recombinant HDAC1 (Homo sapiens (Human), UniProt Q13547). The assay can be described thus: HDAC1 inhibition, Fluor de Lys fluorescent enzyme assay. Type of assay: biochemical. The conditions noted are these: 3 hours pre-incubation at room temp; 6 nM enzyme; 16 μM Fluor de Lys substrate; duplicate. The text has this: (§1) Recombinant HDAC1 (cat #: 50051) and HDAC3/NCor2 (cat #: 50003) enzymes were purchased from BPS Bioscience (San Diego, CA, US). Assay reagents for the detection of HDAC enzyme activity (Fluor de Lys®—Green substrate and Developer kits) were purchased from Enzo Life Science (Farmingdale, NY, US). Plates used to conduct the enzyme reaction were Proxiplate-384 (cat #: 6008280) Plus from PerkinElmer (Waltham, MA, US). TSA, an HDAC inhibitor, was purchased from Enzo Life Science (cat #BML-GR309-9090) The remainder of the reagents used to prepare the assay buffer were purchased from Sigma-Aldrich (St Louis, MO, US). Unless stated otherwise, HDAC1 and 3 assays were conducted in 50 mM Tris buffer, pH 8, 137 mM NaCl, 2.7 mM KCl, 0.01% BSA.
(§2) IC50 determination for HDAC1 and HDAC3—Prior to adding reagents, 50 nL/well of compound were added to Proxiplates using an Echo dispenser instrument (Beckman Coulter, CA, US). After addition of compound, 2.5 μL/well of 2× enzyme solution was added and the enzyme was pre-incubated with compound for 3 hours at room temp. (˜22° C.). After the pre-incubation period, the enzyme reaction was initiated by adding 2.5 μL/well of 2× Fluor de Lys® substrate solution. The assay reaction was stopped after one hour by adding 5 μl/well of a 0.66× Developer solution containing TSA (3.2 μM). The final product of the enzyme reaction was read using a Spectramax plate reader instrument (Molecular Devices, CA, US) using a fluorescent readout (Ex 360 nm/Em 460 nm). The final enzyme concentrations in the assay buffer for HDAC1 and 3 were 6 and 1.2 nM, respectively. The final Fluor de Lys® substrate concentration in the assay buffer was 16 μM for all HDAC enzymes. IC50 values were determined using the following equation: […]
(§3) Where Efree and Eo are the free and total amount of HDAC enzyme in the reaction mixture, n is the hill coefficient, I is the free inhibitor concentration, and IC50 is the measure of the potency equivalent to the inhibitor concentration that leads to a 50% occupancy of the total enzyme. Each data was generated in duplicate.

A further assay addresses HDAC3/NCor2 (Homo sapiens (Human), UniProt O15379). The assay can be described thus: HDAC3 inhibition, Fluor de Lys fluorescent enzyme assay. Type of assay: biochemical. The conditions noted are these: 3 hours pre-incubation at room temp; 1.2 nM enzyme; 16 μM Fluor de Lys substrate; duplicate.
Description: as §1, §2, §3

Structures are written as SMILES.

Chain of HDAC3/NCor2 (O15379 whole entry): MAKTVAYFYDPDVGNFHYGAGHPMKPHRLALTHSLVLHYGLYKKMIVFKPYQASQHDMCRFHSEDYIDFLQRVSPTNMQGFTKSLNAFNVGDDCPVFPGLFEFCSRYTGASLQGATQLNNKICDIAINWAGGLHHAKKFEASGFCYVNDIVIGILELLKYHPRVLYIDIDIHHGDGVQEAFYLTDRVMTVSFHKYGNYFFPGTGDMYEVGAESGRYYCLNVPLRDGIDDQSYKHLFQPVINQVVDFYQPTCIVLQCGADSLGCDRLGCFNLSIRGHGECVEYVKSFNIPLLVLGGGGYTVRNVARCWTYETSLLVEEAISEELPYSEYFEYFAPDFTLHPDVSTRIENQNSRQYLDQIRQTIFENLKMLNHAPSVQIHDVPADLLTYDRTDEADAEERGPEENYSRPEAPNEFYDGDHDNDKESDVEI
Chain of HDAC3/NCor2 (Q9Y618 395-489 partner): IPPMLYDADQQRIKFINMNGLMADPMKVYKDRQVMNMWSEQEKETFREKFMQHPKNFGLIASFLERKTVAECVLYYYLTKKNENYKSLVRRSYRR
Chain of Recombinant HDAC1 (Q13547 whole entry): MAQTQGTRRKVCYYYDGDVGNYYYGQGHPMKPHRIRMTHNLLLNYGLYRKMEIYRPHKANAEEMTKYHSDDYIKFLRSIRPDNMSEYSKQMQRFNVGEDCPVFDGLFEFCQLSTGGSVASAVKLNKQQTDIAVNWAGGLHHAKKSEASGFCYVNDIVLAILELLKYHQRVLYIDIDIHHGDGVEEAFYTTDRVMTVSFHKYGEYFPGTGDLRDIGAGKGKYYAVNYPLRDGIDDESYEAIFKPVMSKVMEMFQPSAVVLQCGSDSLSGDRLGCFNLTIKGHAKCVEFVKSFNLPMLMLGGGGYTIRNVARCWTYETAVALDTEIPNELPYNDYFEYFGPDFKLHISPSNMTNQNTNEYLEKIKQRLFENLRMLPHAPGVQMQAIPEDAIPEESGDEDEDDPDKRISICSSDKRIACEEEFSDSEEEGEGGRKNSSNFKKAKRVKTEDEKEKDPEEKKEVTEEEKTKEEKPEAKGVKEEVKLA

Take `CS(=N)(=O)c1ccc(C(=O)Nc2cc(-c3cncs3)ccc2N)cc1` (stereo not drawn) [Compound 148, N-(2-amino-5-thiazol-5-yl-phenyl)-4-(methylsulfonimidoyl)benzamide]: the 50% inhibitory concentration (IC50) at Recombinant HDAC1 is < 100 nM; at HDAC3/NCor2, 500 to 2000 nM.

In the case of `CS(=N)(=O)c1ccc2sc(C(=O)Nc3cc(-c4ccc(F)cc4)ccc3N)cc2c1` (stereo not drawn) [Compound 173, N-[2-amino-5-(4-fluorophenyl)phenyl]-5-(methylsulfonimidoyl)benzothiophene-2-carboxamide], the IC50 on Recombinant HDAC1 is < 100 nM; against HDAC3/NCor2, 500 to 2000 nM.

For `Cc1ccc(-c2ccc(N)c(NC(=O)c3ccc(S(C)(=N)=O)cc3)c2)s1` (stereo not drawn) [Compound 139, N-[2-amino-5-(5-methyl-2-thienyl)phenyl]-4-(methylsulfonimidoyl)benzamide], the IC50 on Recombinant HDAC1 was < 100 nM; against HDAC3/NCor2 it was > 2000 nM.

Regarding `CS(=N)(=O)c1ccc(C(=O)Nc2cc(-c3ccc(Cl)s3)ccc2N)cc1` (stereo not drawn) [Compound 137, N-[2-amino-5-(5-chloro-2-thienyl)phenyl]-4-(methylsulfonimidoyl)benzamide], the IC50 was < 100 nM on Recombinant HDAC1 and 500 to 2000 nM on HDAC3/NCor2.

In the case of `CS(=N)(=O)c1ccc(C(=O)Nc2cc(-c3cccs3)ccc2N)cn1` (stereo not drawn) [Compound 110, N-[2-amino-5-(2-thienyl)phenyl]-6-(methylsulfonimidoyl)pyridine-3-carboxamide], the IC50 on Recombinant HDAC1 was < 100 nM; against HDAC3/NCor2, 500 to 2000 nM.

Regarding `CS(=N)(=O)c1ccc(C(=O)Nc2cc(-c3ccc(Cl)cc3)ccc2N)cc1` (stereo not drawn) [Compound 182, N-[2-amino-5-(4-chlorophenyl)phenyl]-4-(methylsulfonimidoyl)benzamide], the results for the IC50 on Recombinant HDAC1 and on HDAC3/NCor2 were < 100 nM and > 2000 nM, respectively.

For `CS(=O)(=NC1CC1)c1ccc2sc(C(=O)Nc3cc(-c4ccc(F)cc4)ccc3N)cc2c1` (stereo not drawn) [Compound 211, N-[2-amino-5-(4-fluorophenyl)phenyl]-5-(N-cyclopropyl-S-methyl-sulfonimidoyl)benzothiophene-2-carboxamide], the IC50 was < 100 nM at Recombinant HDAC1 and 500 to 2000 nM on HDAC3/NCor2.

As to `N=S(=O)(c1ccc(C(=O)Nc2cc(-c3ccc(F)cc3)ccc2N)cc1)c1cccnc1` (stereo not drawn) [Compound 172, N-[2-amino-5-(4-fluorophenyl)phenyl]-4-(3-pyridylsulfonimidoyl)benzamide], the figures for the IC50 at Recombinant HDAC1 and on HDAC3/NCor2 were < 100 nM and 500 to 2000 nM, respectively.

For `CS(=N)(=O)c1ccc(C(=O)Nc2cc(-c3cccs3)ccc2N)nn1` (stereo not drawn) [Compound 124, N-[2-amino-5-(2-thienyl)phenyl]-6-(methylsulfonimidoyl)pyridazine-3-carboxamide], the figures for the IC50 at Recombinant HDAC1 and against HDAC3/NCor2 were < 100 nM and 100 to 500 nM, respectively.

In the case of `COCCOCc1ccc(S(=N)(=O)c2ccc(C(=O)Nc3cc(-c4ccc(F)cc4)ccc3N)cc2)cn1` (stereo not drawn) [Compound 246, N-[2-amino-5-(4-fluorophenyl)phenyl]-4-[[6-(2-methoxyethoxymethyl)-3-pyridyl]sulfonimidoyl]benzamide], the values for the IC50 at Recombinant HDAC1 and against HDAC3/NCor2 were < 100 nM and 500 to 2000 nM, respectively.

Consider `CC(C)(C)C(=O)N=S(C)(=O)c1ccc(C(=O)Nc2cc(-c3cccs3)ccc2N)cc1` (stereo not drawn) [Compound 125, N-[2-amino-5-(2-thienyl)phenyl]-4-[N-(2,2-dimethylpropanoyl)-S-methyl-sulfonimidoyl]benzamide], for which the IC50 is < 100 nM at Recombinant HDAC1 and 500 to 2000 nM at HDAC3/NCor2.

With `N=S(=O)(c1ccc(F)cc1)c1ccc(C(=O)Nc2cc(-c3ccc(F)cc3)ccc2N)cc1` (stereo not drawn) [Compound 214, N-[2-amino-5-(4-fluorophenyl)phenyl]-4-[(4-fluorophenyl)sulfonimidoyl]benzamide], the IC50 on Recombinant HDAC1 is < 100 nM; against HDAC3/NCor2, 500 to 2000 nM.

Consider `C[S@](=N)(=O)c1ccc(C(=O)Nc2cc(-c3cccs3)ccc2N)cc1` (single isomer, unassigned) [Compound 106], for which the IC50 at Recombinant HDAC1 is < 100 nM; against HDAC3/NCor2 it was 500 to 2000 nM.

Take `N=S(=O)(c1ccc2sc(C(=O)Nc3cc(-c4ccc(F)cc4)ccc3N)cc2c1)C1CC1` (stereo not drawn) [Compound 224, N-[2-amino-5-(4-fluorophenyl)phenyl]-5-(cyclopropylsulfonimidoyl)benzothiophene-2-carboxamide]: the IC50 on Recombinant HDAC1 is < 100 nM; against HDAC3/NCor2 it was 500 to 2000 nM.

For `CS(=N)(=O)c1ccc(C(=O)Nc2cc(-c3ccc(F)s3)ccc2N)cc1` (stereo not drawn) [Compound 109, N-[2-amino-5-(5-fluoro-2-thienyl)phenyl]-4-(methylsulfonimidoyl)benzamide], the figures for the half-maximal inhibitory concentration (IC50) at Recombinant HDAC1 and against HDAC3/NCor2 were < 100 nM and 500 to 2000 nM, respectively.

As for `N=S(=O)(c1ccc(C(=O)Nc2cc(-c3cccs3)ccc2N)cc1)C1CC1` (stereo not drawn) [Compound 103, N-[2-amino-5-(2-thienyl)phenyl]-4-(cyclopropylsulfonimidoyl)benzamide], the IC50 at Recombinant HDAC1 is < 100 nM; against HDAC3/NCor2 it was 500 to 2000 nM.

In the case of `Cc1cnc(S(=N)(=O)c2ccc(C(=O)Nc3cc(-c4ccc(F)cc4)ccc3N)cc2)[nH]1` (stereo not drawn) [Compound 228, N-[2-amino-5-(4-fluorophenyl)phenyl]-4-[(5-methyl-1H-imidazol-2-yl)sulfonimidoyl]benzamide], the concentration for half-maximal inhibition (IC50) at Recombinant HDAC1 was < 100 nM; against HDAC3/NCor2, 100 to 500 nM.

As to `N=S(=O)(c1ccc(C(=O)Nc2cc(-c3ccc(F)cc3)ccc2N)cc1)c1ccccc1F` (stereo not drawn) [Compound 197, N-[2-amino-5-(4-fluorophenyl)phenyl]-4-[(2-fluorophenyl)sulfonimidoyl]benzamide], the IC50 was < 100 nM on Recombinant HDAC1 and 100 to 500 nM at HDAC3/NCor2.

Consider `C[S@@](=N)(=O)c1ccc(C(=O)Nc2cc(-c3ccc(F)cc3)ccc2N)cc1` [Compound 132, (R)—N-[2-amino-5-(4-fluorophenyl)phenyl]-4-(methylsulfonimidoyl)benzamide], for which the figures for the IC50 on Recombinant HDAC1 and on HDAC3/NCor2 were < 100 nM and 500 to 2000 nM, respectively.

Take `N=S(=O)(c1ccc(C(=O)Nc2cc(-c3ccc(F)cc3)ccc2N)cn1)c1cnc[nH]1` (stereo not drawn) [Compound 219, N-[2-amino-5-(4-fluorophenyl)phenyl]-6-(1H-imidazol-5-ylsulfonimidoyl)pyridine-3-carboxamide]: the concentration for half-maximal inhibition (IC50) on Recombinant HDAC1 was < 100 nM; at HDAC3/NCor2 it was 500 to 2000 nM.

Consider `Cn1cncc1S(=N)(=O)c1ccc(C(=O)Nc2cc(-c3ccc(F)cc3)ccc2N)cc1` (stereo not drawn) [Compound 242, N-[2-amino-5-(4-fluorophenyl)phenyl]-4-[(3-methylimidazol-4-yl)sulfonimidoyl]benzamide], for which the IC50 was < 100 nM on Recombinant HDAC1 and 500 to 2000 nM at HDAC3/NCor2.

Turning to `CCN=S(C)(=O)c1ccc2sc(C(=O)Nc3cc(-c4ccc(F)cc4)ccc3N)cc2c1` (stereo not drawn) [Compound 207, N-[2-amino-5-(4-fluorophenyl)phenyl]-5-(N-ethyl-S-methyl-sulfonimidoyl)benzothiophene-2-carboxamide], the half-inhibitory concentration (IC50) is < 100 nM at Recombinant HDAC1 and 500 to 2000 nM at HDAC3/NCor2.

With `COc1ncc(S(=N)(=O)c2ccc(C(=O)Nc3cc(-c4ccc(F)cc4)ccc3N)cc2)cn1` (stereo not drawn) [Compound 218, N-[2-amino-5-(4-fluorophenyl)phenyl]-4-[(2-methoxypyrimidin-5-yl)sulfonimidoyl]benzamide], the IC50 on Recombinant HDAC1 is < 100 nM; against HDAC3/NCor2, 500 to 2000 nM.

Regarding `N=[S@](=O)(c1ccc(C(=O)Nc2cc(-c3cccs3)ccc2N)cc1)C1CC1` (single isomer, unassigned) [Compound 114], the values for the half-inhibitory concentration (IC50) on Recombinant HDAC1 and at HDAC3/NCor2 were < 100 nM and 500 to 2000 nM, respectively.

By IC50 is commonly meant the point on the concentration scale where inhibition reaches its midpoint.
